In experiment [1] the test system is CLDN6 expression in NIH-OVCAR3, NCI-H1435, SNG-M. Description: CLDN6 expression by FACS after platinum preparation treatment. It counts as cell-based, human. The following applies: 5 days; cisplatin 0.1 or 0.6 μg/mL, carboplatin 0.5 or 5 μg/mL; vs untreated. The procedure: Human ovarian cancer cell line (NIH-OVCAR3, ATCC), human lung cancer cell line (NCI-H1435, ATCC), and human endometrial cancer cell line (SNG-M, Health Science Research Resources Bank) were treated with cisplatin (CDDP, Nichiiko) or carboplatin (CBDCA, Sandoz) to analyze the effect of the treatment on CLDN6 expression.
Each cell was subjected to the addition of cisplatin at 0.1 μg/mL (OVCAR3) or 0.6 μg/mL (H1435, SNG-M), or carboplatin at 0.5 μg/mL (OVCAR3) or 5 μg/mL (H1435, SNG-M), and then cultured for five days. After culturing, the cells were recovered, and CLDN6 expression was analyzed by FACS.
In FACS analysis, cells were detached from the culturing flask and then reacted with an anti-CLDN6 antibody (AE3-20 mIgG2a, Japanese Patent No. 5848863) or an isotype antibody (mIgG2a, BioLegend) at 2 μg/mL, at 4° C. for one hour. Next, reaction with Alexa Flour 488-labeled anti-mouse IgG (ThermoFisher) at 10 μg/mL was performed at 4° C. for one hour, and the amount of CLDN6 expression was analyzed using a flow cytometer (FACSVerse, BD Biosciences).
In general terms: In flow cytometry, cells or beads pass a laser one at a time.

Experiment [2] relates to CLDN6 expression in SNG-M tumor. In words: CLDN6 expression by real-time PCR in SNG-M tumor transplant. Format: in vivo, NOD/scid mice. The following applies: 40 mg/kg or 80 mg/kg ip twice, vs vehicle. As for the experimental part: SNG-M (1×10^7 cells) was transplanted subcutaneously to NOD/scid mice (CLEA Japan). After tumor engraftment, the vehicle (physiological saline) or carboplatin at 40 mg/kg or 80 mg/kg was administered intraperitoneally on the day of transplantation (day 0) and 3 days after transplantation (day 3), and the tumor was sampled 6 days after transplantation (day 6).
RNA was purified from the tumor (RNeasy Mini Kit, QIAGEN), and then cDNA synthesis was performed (Superscript IV VILO Master Mix, ThermoFisher). Using the cDNAs as templates, real-time PCR was performed using a CLDN6-specific primer (Power SYBR (registered trademark) Green Master Mix, ThermoFisher) to analyze CLDN6 expression (QuantStudio 12K Flex Real-Time PCR System, ThermoFisher).
Sequences of the primers for human CLDN6 and primers for human GAPDH used as an internal control are as follows: […]

For experiment [3], the system named is SNG-M. In words: SNG-M xenograft in huNOG mice, combination with carboplatin. It counts as in vivo. The note with it: 30 days after transplantation; CS4135 0.5 mg/kg iv day 13, carboplatin 40 mg/kg ip days 13, 16, 20. The procedure:
In this test, NOG (huNOG) mice (described in the aforementioned Example 13) transplanted with human uterus cancer cell line SNG-M and human CD34-positive cells were used. The SNG-M cell line was transplanted subcutaneously to the right flank of the mice, and the mice were divided into groups 13 days after transplantation. Individuals whose tumor volume reached 130 to 244 mm^3 were divided into groups. Vehicle 1 and CS4135 were administered into the mouse tail vein 13 days after transplantation. PBS containing 0.05% Tween-20 was used as Vehicle 1. Vehicle 2 and carboplatin (Bristol Myers Squibb Company) were administered intraperitoneally to the mice 13, 16, and 20 days after transplantation. Physiological saline was used as Vehicle 2.
Tumor volume was measured 13, 16, 20, 23, 26, and 30 days after transplantation, and the average tumor volume was indicated for each group.
The tumor volume was calculated by the following equation: […]
(§1) Tumor Growth Inhibition (TGI) was calculated by the following equation: […]

Experiment [4] has as its system OVCAR3. In words: OVCAR3 xenograft in huNOG mice, combination with carboplatin. It counts as in vivo. The following applies: 56 days after transplantation; CS4135 0.1 mg/kg iv days 38, 45 (sequential: 48, 55), carboplatin 60 mg/kg ip days 38, 45. As for the experimental part: In this test, NOG (huNOG) mice (described in the aforementioned Example 13) transplanted with ovarian cancer cell line OVCAR3 and human CD34-positive cells were used. The OVCAR3 cell line was transplanted subcutaneously to the right flank of the mice, and the mice were divided into groups 38 days after transplantation. Individuals whose tumor volume reached 119 to 210 mm^3 were divided into groups. Vehicle 1 and CS4135 were administered into the mouse tail vein 38 and 45 days after transplantation. PBS containing 0.05% Tween-20 was used as Vehicle 1. Vehicle 2 and carboplatin (Bristol Myers Squibb Company) were administered intraperitoneally to the mice 38 and 45 days after transplantation. Physiological saline was used as Vehicle 2.
Tumor volume was measured 38, 42, 45, 48, 52, and 56 days after transplantation, and the average tumor volume was indicated for each group. The tumor volume was calculated by the following equation: […]
as §1

Experiment [5] deals with CLDN6 expression in NIH:OVCAR-3. Description: CLDN6 expression by quantitative PCR after chemotherapeutic agents. It counts as cell-based, human. The following applies: 6 days; carboplatin 0.5 μg/mL, cisplatin 0.1 μg/mL, irinotecan 0.25 μg/mL, gemcitabine 2 ng/mL; vs untreated. The procedure: Various chemotherapeutic agents were added to human ovarian cancer cell line (NIH:OVCAR-3, ATCC) to analyze the change in CLDN6 expression. Regarding the NIH:OVCAR-3 cells seeded on culture plates, RNAs were purified (RNeasy Mini Kit, QIAGEN) from cells to which no pharmaceutical agent was added (untreated cells), or from cells collected 6 days after addition of carboplatin (0.5 μg/mL), cisplatin (0.1 μg/mL), irinotecan (0.25 μg/mL), or gemcitabine (2 ng/mL), and then cDNA synthesis (Superscript IV VILO Master Mix, ThermoFisher) was performed. By using the cDNAs as templates, real-time PCR was performed using CLDN6-specific primers (Power SYBR (registered trademark) Green Master Mix, ThermoFisher) to analyze CLDN6 expression (QuantStudio 12K Flex Real-Time PCR System, ThermoFisher). Sequences of the primers for human CLDN6 and the primers for human GAPDH that were used as the internal control are as follows: […]

For experiment [6], the system named is TGF-β1 expression in NIH:OVCAR-3. In words: TGF-β1 expression by quantitative PCR after chemotherapeutic agents. The following applies: 6 days; same treated cells as Example 21.1; vs untreated. It counts as cell-based, human. The procedure:
Next, the cDNAs prepared from the human ovarian cancer cell line (NIH:OVCAR-3, ATCC) treated with carboplatin, cisplatin, irinotecan, or gemcitabine, which were used in Example 21.1, were used to perform real-time PCR with TGF-β1-specific primers (Power SYBR (registered trademark) Green Master Mix, ThermoFisher), and TGF-β1 expression was analyzed (QuantStudio 12K Flex Real-Time PCR System, ThermoFisher).
Sequences of the primers for human TGF-β1 are as follows: […]
The same primers as those in the above-mentioned Example 21.1 were used as the primers for human GAPDH used as the internal control.

Experiment [7] deals with NIH:OVCAR-3. Description: OVCAR3 xenograft in huNOG mice, combination with irinotecan hydrochloride. Format: in vivo. The note with it: 60 days after transplantation; CS4135 0.1 mg/kg, irinotecan hydrochloride 25 mg/kg, iv days 39, 46. As for the experimental part: In this test, NOG(huNOG) mice (described in the aforementioned Example 13) transplanted with ovarian cancer cell line NIH:OVCAR-3 (OVCAR3, ATCC) and human CD34-positive cells were used. The OVCAR3 cell line was transplanted subcutaneously to the right flank of the mice, and the mice were divided into groups 39 days after transplantation. Individuals whose tumor volume reached 160 to 263 mm^3 were divided into groups. Vehicle 1 and CS4135 were administered into the mouse tail vein 39 and 46 days after transplantation. PBS containing 0.05% Tween-20 was used as Vehicle 1. Vehicle 2 and irinotecan hydrochloride (Sawai Pharmaceutical Co., Ltd.) were administered into the mouse tail vein 39 and 46 days after transplantation. Physiological saline was used as Vehicle 2.
Tumor volume was measured 39, 42, 46, 49, 53, 57, and 60 days after transplantation, and the average tumor volume is indicated for each group. The tumor volume was calculated by the following equation: […]
as §1

The test system of experiment [8] is TGF-β1 expression in cancer cells. The note with it: reported in literature; cited from earlier work.
Experiment [9] deals with CLDN6 expression in UWB1.289. Description: CLDN6 expression by FACS after PARP inhibitor, UWB1.289. Format: cell-based, human. The note with it: BRCA1-deficient UWB1.289, 0.03-3 μM, 3 days. The procedure: (§2) Induction of CLDN6 expression by a PARP inhibitor (olaparib) was assessed. BRCA1-deficient ovarian cancer cell line UWB1.289 (ATCC) or BRAC1 wildtype ovarian cancer cell line OV-90 (ATCC) which express human CLDN6 were used.
(§3) Target cells (3×10^5 cells) were plated onto a 6-well plate at 3 mL/well. After culturing overnight, olaparib was added at a final concentration of 0.03, 0.1, 0.3, 1, or 3 μM. DMSO was added to the control well. After incubating the plate for 3 days, the cells were recovered and the amount of CLDN6 expression on the cell surface was determined by FACS analysis using an anti-CLDN6 antibody. The level of fluorescence in the target cells recovered from the wells, to which various concentrations of olaparib were added, are shown in FIG. 27, wherein the level of fluorescence in the target cells recovered from the control well was defined as 1.

Experiment [10] deals with CLDN6 expression in OV-90. In words: CLDN6 expression by FACS after PARP inhibitor, OV-90. Format: cell-based, human. The following applies: BRAC1 wildtype OV-90, 0.03-3 μM, 3 days. The procedure: as §2, §3

Structures can show the parent of a compound that is named as a salt.

As to `N.N.O=C([O-])C1(C(=O)[O-])CCC1.[Pt+2]` [Carboplatin, carboplatin], the CLDN6 expression result in experiment [1] was “increase in CLDN6 expression”; in experiment [5] it was “Increase in CLDN6 expression was observed”. Moreover, the “CLDN6 expression in the tumor” value in experiment [2] is recorded as “increased”. The “Tumor growth inhibition: TGI” value is 44% in [3] and −9% in experiment [4]. Further, the TGF-β1 expression entry in experiment [6] is recorded as “Increase in TGF-β1 expression was observed”.
Take `CCc1c2c(nc3ccc(OC(=O)N4CCC(N5CCCCC5)CC4)cc13)-c1cc3c(c(=O)n1C2)COC(=O)[C@]3(O)CC` [Irinotecan hydrochloride, irinotecan hydrochloride, reference compound]: the “Tumor growth inhibition: TGI” value in [7] is listed as 65%.
Consider `N.N.[Cl][Pt][Cl]` [cisplatin], for which the CLDN6 expression entry is given as “increase in CLDN6 expression” in experiment [1] and “Increase in CLDN6 expression was observed” in experiment [5]. In addition, the TGF-β1 expression result in experiment [6] is “Increase in TGF-β1 expression was observed”.
Consider `COc1cccc2c1C(=O)c1c(O)c3c(c(O)c1C2=O)C[C@@](O)(C(=O)CO)C[C@@H]3O[C@H]1C[C@H](N)[C@H](O)[C@H](C)O1` [doxorubicin], for which, in experiment [8], the “expression of TGF-β1 in cancer cells” value is “induce expression of TGF-β11 in cancer cells”.
For the compound `Nc1ccn([C@@H]2O[C@H](CO)[C@@H](O)C2(F)F)c(=O)n1` [gemcitabine], in [5], the CLDN6 expression result is “Increase in CLDN6 expression was observed”. Further, the TGF-β1 expression entry in experiment [6] is given as “Increase in TGF-β1 expression was observed”.
Regarding `CCc1c2c(nc3ccc(OC(=O)N4CCC(N5CCCCC5)CC4)cc13)-c1cc3c(c(=O)n1C2)COC(=O)[C@]3(O)CC` [irinotecan], in experiment [5], the CLDN6 expression result is recorded as “Increase in CLDN6 expression was observed”. Besides, the TGF-β1 expression result in [6] is listed as “Increase in TGF-β1 expression was observed”.
`O=C(c1cc(Cc2n[nH]c(=O)c3ccccc23)ccc1F)N1CCN(C(=O)C2CC2)CC1` [olaparib]: the values for the CLDN6 expression induction result in experiment [9] and in experiment [10] were “concentration-dependent enhancement of CLDN6 expression induction was observed” and “enhancement of CLDN6 expression induction was not observed at any concentration”, respectively.
Turning to `CC(=O)O[C@H]1C(=O)[C@@]2(C)[C@H]([C@H](OC(=O)c3ccccc3)[C@]3(O)C[C@H](OC(=O)[C@H](O)[C@@H](NC(=O)c4ccccc4)c4ccccc4)C(C)=C1C3(C)C)[C@]1(OC(C)=O)CO[C@@H]1C[C@@H]2O` [paclitaxel], the “expression of TGF-β1 in cancer cells” value in experiment [8] is on record as “induce expression of TGF-β11 in cancer cells”.

These data come from patent publication US20240425589A1, “CYTOTOXICITY-INDUCING THERAPEUTIC AGENT FOR USE IN TREATMENT OF CANCER” (CHUGAI SEIYAKU KABUSHIKI KAISHA, priority 2021, published 2024).
